The values that follow come from US4560557A, “Silicon and sulfur steroids as irreversible inhibitors of hormone biosynthesis” (University Patents, Inc., priority 1983, dated 1985).

The test system of one data set is human adrenal cells. Nature of the data set: ACTH-stimulated cortisol production by human adrenal cell suspensions. Format: cell-based. Conditions: for time dependence of inhibition of cortisol production: FIG. 4, FIG. 5; for inhibition of ACTH-stimulated cortisol production: human cells. From the text:
(§1) Additionally data showing that the silicon and sulfur-containing compounds of the present invention are effective at halting steroid hormone biosynthesis when given at low concentrations to suspensions of human and rat adrenal cells are depicted in the following figures and table.

For data set [1], the system named is cytochrome P-450 cholesterol side chain cleavage enzyme (P-450scc). Nature of the data set: P-450scc inactivation, preincubation study (pregnenolone formation from [3H]cholesterol). It counts as biochemical. The settings on record: NADPH and/or O2, FIG. 1: P450 1.35 μM, steroid 20 μM. The procedure: As mentioned previously, the compounds of the present invention are potent inhibitors of the conversion of cholesterol to pregnenolone.
The final turnover mixture contained 2.5 μM adrenodoxin, 150 nM adrenodoxin reductase, 50 mM K^+ MOPS (pH 7.2), 10 mM MgCl2, 0.2% Tween 20, 1 unit/mL catalase, a NADPH-generating system of 16 μM NADPH, 3 mM G6P, and 1 unit/mL […]. For a typical preincubation experiment, inhibitor was added as an ethanol solution (2-10 mM) into the P-450 turnover mixture at 37° C. and the reactions were started by addition of NADPH stock solution. After, 0, 5, 10, 15, 30, or 45 min. of incubation, an aliquot of this mixture (200μ) was introduced into 1.8 ml of the turnover mixture containing [1, 2-^3 H] cholesterol (100 μM 10,000 dpm/nmol). After 10 min., the reaction was terminated by acidification, and [4-^- C] prengenolone were added as an internal standard. The resulting mixture was extracted using ethyl acetate and evaporated to dryness. The product pregnenolone was separated on silica gel TLC plates (Baker-flex) using 1:1 ethyl acetate-hexane as the solvent. The product formation was determined from the ratio of ^3 H to ^14 C in the recovered pregnenolone.
The P450 concentration was 1.35 μM and the steroid was 20 μM=NADPH; 0=no inhibitor+NADPH; 0=NADPH.

A further data set deals with rat adrenal cells. Nature of the data set: Time and concentration dependence of effects on ACTH-stimulated corticosterone production by rat adrenal cells. Format: cell-based. The settings on record: for time dependence of inhibition of corticosterone production: FIG. 2, FIG. 3; for inhibition of ACTH-stimulated corticosterone production: rat cells. The method, then: as §1
Steroid was added at […]. […] At 10 μM 20 OH TMS steroid, corticosterone production is obliterated by 40 min.
Steroid was added at t=-10 min.

For a further data set, the system named is rat adrenocortical cells. The experiment in a line: Effects of cholesterol analogues on adrenal cell corticosterone production (with or without ACTH). Format: cell-based. From the text: When rat adrenocortical cells were stimulated with ACTH in the presence of the P-450 scc inhibitors of the present invention, and the production of cortiscoterone measured, less corticosterone was produced in the presence of the compounds of the present invention, then when those compounds were absent.
Corticosterone production rates by non-stimulated rat adrenal cell suspensions are approximately one-fifth those of ACTH stimulated rates. […] This property, combined with P-450 scc inhibitors with and without polar side chains was used to determine how ACTH stimulation results in increased conversion of endogenous cholesterol to corticosterone.
Cells (30,000/ml) were preincubated with steroid for 10 minutes.
Maximally stimulating levels of ACTH were then added and the
incubation continued for another 60 minutes. The incubations were
then quenched, and samples assayed for
corticosterone fluorometrically.

Setting [2] is: FIG. 5, 10 μM for the 20(S) compound.
Where [3] appears, read: ACTH + steroid 2 ug/ml, ACTH only = 100, 10 min preincubation, 60 min incubation.

For 22 (trimethylisilyl pregnenol), in the data set on human adrenal cells (FIG. 4), the “inhibition of cortisol production” value is recorded as “little inhibitory effect on cortisol production”.

Consider `C[C@]12CC[C@H]3[C@@H](CC=C4C[C@@H](O)CC[C@@]43C)[C@@H]1CC[C@@H]2[C@@](C)(O)CC[Si](C)(C)C` [20 OH TMS, 20-(2-Trimethylsilyl-ethyl) pregnen-3, 20a-diol], for which, in data set [1], the “loss of enzyme activity / P-450 scc inhibition” value was “P-450 scc inhibition”. In data set [1] (listed as trimethyl silyl-containing compound), the “loss of enzyme activity / P-450 scc inhibition” value is recorded as “time-dependent loss of enzyme activity”. The “inhibition of cortisol production” value in the data set with human adrenal cells (FIG. 4) was “strongly inhibits cortisol production”. In the data set with human adrenal cells, the “time dependence of inhibition of cortisol production” value was “probably in a time dependent manner” and the “inhibition of ACTH-stimulated cortisol production” value was “inhibits”. Also, the corticosterone production result in the data set with rat adrenal cells (10 μM steroid, by 40 min (FIG. 2)) is listed as “obliterated”. Besides, in the data set with rat adrenal cells, the “time dependence of inhibition of corticosterone production” value is recorded as “strongly time dependent” and the “inhibition of ACTH-stimulated corticosterone production” value is “inhibits”.

Take `CC(C)CCS[C@H](C)[C@H]1CC[C@H]2[C@@H]3CC=C4C[C@@H](O)CC[C@]4(C)[C@H]3CC[C@]12C` [20(R)22 thiacholesterol]: the “time dependence of inhibition of cortisol production” value with human adrenal cells is “not time dependent”. The “inhibition of cortisol production” value in the data set on human adrenal cells (setting [2]) is given as “inhibited slightly”. Moreover, the “CORTICOSTERONE PRODUCED (%)” value in the data set with rat adrenocortical cells (setting [3]) is listed as 117.9%.

In the case of `CC(C)CCS[C@@H](C)[C@H]1CC[C@H]2[C@@H]3CC=C4C[C@@H](O)CC[C@]4(C)[C@H]3CC[C@]12C` [20(S)22 thiacholesterol], in the data set with human adrenal cells, the “time dependence of inhibition of cortisol production” value is listed as “probably in a time dependent manner” and the “inhibition of ACTH-stimulated cortisol production” value is given as “inhibits”. In the data set on human adrenal cells (setting [2]), the “inhibition of cortisol production” value is listed as “strongly inhibited”. The “CORTICOSTERONE PRODUCED (%)” value with rat adrenocortical cells (25 hydroxycholesterol 5 ug/ml + 20(S)22 thialcholesterol 5 ug/ml, without ACTH, ACTH only = 100, 60 min) worked out at 15.5%. Also, in the data set on rat adrenocortical cells (setting [3]), the “CORTICOSTERONE PRODUCED (%)” value was 54.1%. Moreover, the “corticosterone production (in words)” value with rat adrenocortical cells (ACTH-stimulated cells) is “decreased corticosterone production”. Also, in the data set on rat adrenal cells, the “time dependence of inhibition of corticosterone production” value is recorded as “only slightly time dependent” and the “inhibition of ACTH-stimulated corticosterone production” value is reported as “inhibits”. For the same compound, the “concentration dependence of inhibition of corticosterone production” value in the data set on rat adrenal cells (FIG. 3) is on record as “strongly concentration dependent”.

Consider `C[C@H](CCCC(C)(C)O)[C@H]1CC[C@H]2[C@@H]3CC=C4C[C@@H](O)CC[C@]4(C)[C@H]3CC[C@]12C` [25 hydroxycholesterol, reference compound], for which the “CORTICOSTERONE PRODUCED (%)” value in the data set on rat adrenocortical cells (setting [3]) is given as 117.0%. For the same compound, the activity at 2 µg/mL in the data set with rat adrenocortical cells (Rattus norvegicus, 1 h, steroid 2 ug/ml without ACTH, ACTH only = 100, read-out: CORTICOSTERONE PRODUCED (%)) is 21.9%. Further, the activity at 5 µg/mL in the data set on rat adrenocortical cells (Rattus norvegicus, 1 h, steroid 5 ug/ml without ACTH, ACTH only = 100, read-out: CORTICOSTERONE PRODUCED (%)) amounted to 30.4%. Further, the “corticosterone production rate relative to ACTH stimulated cells” value in the data set on rat adrenocortical cells (non-stimulated cells) is on record as “as much as one-half those of ACTH stimulated cells”.
